In patent US20240400584A1, “COMPOUNDS AND METHODS FOR MODULATING SPLICING” (REMIX THERAPEUTICS INC., priority 2021, published 2024):

Experiments:
HTT = experiment: RT-qPCR splicing assay, HTT AJ/CJ mRNA; type: cell-based, human; conditions: Homo sapiens, 24 h, A673 or K562 cells; for IC50: decrease in canonical junction mRNA; for AC50: increase in alternative junction mRNA
How it was run: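 HTT and MYB canonical (CJ) and alternative-exon (AJ) junction transcripts quantified by one-step RT-qPCR from lysates of A673 or K562 cells treated 24 h with 11-point 3-fold dilutions (top 10 uM, ≤0.25% DMSO). Ct normalized to GAPDH, GUSB or PPIA and DMSO control (2^−ΔΔCt), expressed as % response.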

MYB = experiment: Gene panel canonical junction qPCR assay, MYB CJ mRNA (Table 7); type: cell-based; conditions: Homo sapiens, read-out: MYB CJ mRNA decrease IC50
How it was run: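 Read-out is the IC50 for loss of canonical-junction mRNA, fitted with a four-parameter logistic curve to percentage response. Response came from RT-qPCR on compound-treated A673 or K562 cell lysates, ΔCt against a housekeeping gene and normalized to DMSO.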

Row | SMILES | IC50 (HTT) [nM] | AC50 (HTT) [nM] | IC50 (MYB) [nM]
1 | Cc1ncc(-c2ccc3c(c2)COc2nc(N(C)[C@@H]4C[C@H]5CC[C@@H](C4)N5)ccc2-3)o1 [Compound 155] | < 100 | < 100 | 100 to 1000
2 | CN(c1ccc2c(n1)OCc1cc(-n3nccn3)ccc1-2)[C@@H]1C[C@H]2CC[C@@H](C1)N2 [Compound 151] | < 100 | < 100 | 100 to 1000
3 | CN(c1cnc2c(n1)OCc1cc(-c3cn[nH]c3)ccc1-2)[C@@H]1C[C@H]2CC[C@@H](C1)N2 [Compound 144] | 100 to 1000 | 100 to 1000 | 100 to 1000
4 | Cc1cnc(-c2ccc3c(c2)COc2nc(N(C)[C@@H]4C[C@H]5CC[C@@H](C4)N5)ccc2-3)o1 [Compound 206] | 100 to 1000 | 100 to 1000 | 100 to 1000
5 | Cc1[nH]ncc1-c1ccc2c(c1)COc1nc(N(C)[C@@H]3C[C@H]4CC[C@@H](C3)N4)ccc1-2 [Compound 154] | 100 to 1000 | 100 to 1000 | 100 to 1000
6 | c1cnn(-c2ccc3c(c2)COc2nc(NC4CNC4)ccc2-3)c1 [Compound 166] | > 10000 | > 10000 | > 10000
7 | CC1(C)CC(Nc2ccc3c(n2)OCc2cc(-n4cccn4)ccc2-3)CC(C)(C)N1 [Compound 165] | 100 to 1000 | 100 to 1000 | 1000 to 10000
8 | CN(c1ccc2c(n1)CCOc1cc(-n3cccn3)ccc1-2)C1CC(C)(C)NC(C)(C)C1 [Compound 129] | > 10000 | > 10000 | > 10000
9 | CN(c1ccc2c(n1)COc1cc(-n3cccn3)ccc1-2)C1CC(C)(C)NC(C)(C)C1 [Compound 125] | > 10000 | > 10000 | > 10000
10 | COc1cc(-c2ccc3c(c2)COc2nc(N(C)[C@@H]4C[C@H]5CC[C@@H](C4)N5)ccc2-3)cnn1 [Compound 159] | < 100 | < 100 | < 100
11 | CC1(C)CC(Nc2ccc3c(c2)COc2cc(-n4cccn4)ccc2-3)CC(C)(C)N1 [Compound 118] | > 10000 | > 10000 | > 10000
12 | CN(c1ccc2c(n1)COc1cc(-c3cn[nH]c3)ccc1-2)[C@@H]1C[C@H]2CC[C@@H](C1)N2 [Compound 121] | 100 to 1000 | 100 to 1000 | 1000 to 10000
13 | COc1cc(-c2ccc3c(c2)COc2nc(N4CCC(N(C)C5CCC5)C4)ccc2-3)cnn1 (stereo not shown) [Compound 307, N-cyclobutyl-1-[8-(6-methoxypyridazin-4-yl)-6H-isochromeno[3,4-b]pyridin-3-yl]-N-methylpyrrolidin-3-amine] | 100 to 1000 | 100 to 1000 | 1000 to 10000
14 | CN(c1ccc2c(c1)CCOc1cc(-n3cccn3)ccc1-2)[C@@H]1C[C@H]2CC[C@@H](C1)N2 [Compound 113] | > 10000 | > 10000 | > 10000
15 | CN(c1ccc2c(n1)OCc1cc(-c3ccc(=O)n(C)c3)ccc1-2)[C@@H]1C[C@H]2CC[C@@H](C1)N2 [Compound 158] | 100 to 1000 | 100 to 1000 | 100 to 1000
16 | CN(c1ccc2c(c1)COc1cc(-n3cccn3)ccc1-2)C1CC(C)(C)NC(C)(C)C1 [Compound 117] | > 10000 | > 10000 | 1000 to 10000
17 | CN(c1ccc2c(n1)OCc1cc(-n3ccnc3)ccc1-2)[C@@H]1C[C@H]2CC[C@@H](C1)N2 [Compound 163] | < 100 | < 100 | 100 to 1000
18 | CN(c1ccc2c(n1)OCc1cc(-c3cn[nH]c3)ccc1-2)[C@@H]1C[C@H]2CC[C@@H](C1)N2 [Compound 108] | < 100 | < 100 | 100 to 1000
19 | Cc1cn(-c2ccc3c(c2)COc2nc(N(C)[C@@H]4C[C@H]5CC[C@@H](C4)N5)ccc2-3)cn1 [Compound 164] | < 100 | < 100 | 100 to 1000
20 | Cc1ncc(-c2ccc3c(c2)COc2nc(O[C@@H]4C[C@H]5C[C@@H](C4)N5)ccc2-3)s1 [Compound 208] | – | – | 100 to 1000
21 | c1cc2c(cc1-c1cn[nH]c1)COc1nc(O[C@@H]3C[C@H]4CC[C@@H](C3)N4)ccc1-2 [Compound 218] | < 100 | < 100 | 100 to 1000
22 | CN(c1ccc2c(c1)OCc1cc(-c3cn[nH]c3)ccc1-2)[C@@H]1C[C@H]2CC[C@@H](C1)N2 [Compound 104] | > 10000 | > 10000 | > 10000
23 | CC(C)Oc1cnnc(-c2ccc3c(c2)COc2nc(N4CCC(NC(C)(C)C)C4)ccc2-3)c1 (stereo not shown) [Compound 286] | > 10000 | > 10000 | > 10000
